Source: patent publication US11513122B2, “Predicting response to PD-1 axis inhibitors” (Hoffmann-La Roche Inc., priority 2016, dated 2022)

Key:
[1] = test system: patients with non-small cell lung cancer (NSCLC); assay: Phase II clinical trial POPLAR (NCT01903993), overall survival by DC gene expression; type: in vivo, human
From the text: Further to Example 3, we analyzed 193 patients with non-small cell lung cancer (NSCLC) previously treated, then received atezolizumab or docetaxel in a Phase II clinical trial POPLAR. This study is registered with ClinicalTrials.gov, number NCT01903993. POPLAR is a multicentre, randomised, open-label phase II trial, done at 61 academic medical centers and community oncology practices across 13 countries in Europe and North America. The study was done in full accordance with the guidelines for Good Clinical Practice and the Declaration of Helsinki. Protocol (and modification) approval was obtained from an independent ethics committee for each site (Fehrenbacher L, et. Al., Lancet 2016). Among those patients with squamous or non-squamous NSCLC, 96 received Docetaxel, and 92 received atezolizumab, and the rest of 5 left untreated (Table 1).
Tumor specimens at baseline were archived and taken for gene expression profiling performed by RNA Sequencing (RNA-Seq). Based on literature (Merad M. et al, Ann. Rev. Immunol. 2013), we selected a list of genes consisting of XCR1, IRF8, BATF3, and FLT3, which are associated with human dendritic cell phenotypes and development with cross-presenting specialization. Normalized read counts of each selected gene across the whole cohort were divided at medium expression level for the higher expression ones (+) and lower/no expression ones (−). Using in-house R scripts the two defined subgroups were plotted against the Kaplan-Meier survival curves. In addition, Cox-regression analysis was used to calculate the hazard ratio (HR) between the two patient groups divided based on positive and negative gene expression.
We also investigated the impact of multiple genes involved in human DC development and function (XCR1, BATF3, FLT3, and IRF8) by defining a cumulative DC gene score (DC score) reflecting the cumulative expression of these marker genes. Each gene's expression is first standardized by a z-score:
where μ and σ are estimated in the entire cohort or in the selected subgroups. After the standardization step, these standardized z-score values are averaged across genes within each patient. The cohort was corrected for the smoking status, ECOG and sex of patient. Then the score was plotted against the Kaplan-Meier survival curves.

[2] = test system: patients with renal cell carcinoma; assay: Phase I clinical trial (NCT01375842), response and survival by DC gene expression; type: in vivo, human
From the text: We hypothesized that patients with DC abundance may respond to PD-L1 blockade leading to beneficial effect in patients who received the treatment. We analyzed 56 patients with renal cell carcinoma who received Atezolizumab in a Phase I clinical trial (NCT01375842) (www.clinicaltrials.gov). This study was sponsored by Genentech Inc., a member of the Roche Group, which provided the study drug. The protocol and its amendments were approved by the relevant institutional review boards or ethics committees, and all participants provided written informed consent. This study was conducted in accordance with the Declaration of Helsinki and International Conference on Harmonization Guidelines for Good Clinical Practice. In total, 56 patients were analyzed. Based on the “Best Confirmed Overall Response by the Investigator” we observed 6 responders (CR=1; PR=5) and 47 non-responder (PD=21; SD=26) as well as 3 patients without known information (FIG. 7).
Tumor specimens at baseline were archived and taken for gene expression profiling performed by RNA Sequencing (RNA-Seq). Based on literature (Merad, ann rev immunol 2013), we selected a list of genes consisting of XCR1, IRF8, BATF3 and FLT3, which are associated with human dendritic cell development with cross-presenting specialization. The log 2 RPKM expression values of each selected gene across the whole cohort were divided at medium expression level for the higher expression ones (+) and lower/no expression ones (−). Using in-house R scripts the two defined subgroups were plotted against the Kaplan-Meier survival curves. […] The medium survival between patients with higher expression versus lower/no expression were separated for at least 15.6 months or longer (FIG. 9).
As several genes linked to human dendritic cell development were associated with the survival advantages, we investigated the impact of multiple genes involved in human DC development and function by defining a cumulative DC gene score (DC score) reflecting the cumulative expression of these marker genes. Each gene's expression is first standardized by a z-score: z=(x−μ)/σ,
where μ and σ are estimated in the entire cohort or in the selected subgroups. After the standardization step, these standardized z-score values are averaged across genes within each patient. The RCC cohort was corrected for the sex of patient as well as the Stage at Initial Diagnosis.

[3] = test system: MC38 cells (colorectal cancer cell lines); assay: MC38 tumor model in CD11c-DTR mice with or without DC depletion by DT; type: in vivo; details: MC38 s.c.; DT 100 ng at day 6; anti-PD-L1 Ab 10 mg/kg from day 7, weekly; FIG. 6B
Procedure: To further study the contribution of DCs by PD-L1 blockade in mediating anti-tumor immunity, we obtained the CD11c-DTR mice from the Jackson laboratory (B6.FVB-Tg(Itgax-DTR/EGFP)57Lan/J, Cat. No. 004509). […]. When tumor is palpable at day 6, mice were treated with 100 ng of DT (Sigma-Aldrich) or left untreated. At day 7, a anti-PD-L1 Ab (10 mg/kg, murine IgG1, clone 6E11, Genentech) was given to mice, followed by weekly injection (FIG. 6A). […] Our data support the concept that DCs are needed for PD-L1 Ab to achieve its maximum anti-tumor efficacy.

human DCs = assay: Maturation of monocyte-derived DCs by LPS, PD-1/PD-L1 staining by flow cytometry; type: cell-based; details: LPS 10 ng/mL, FIGS. 2A-2B
Procedure: To address the potential regulation of PD-1 and its ligands on human DCs, monocyte-derived DCs were generated using the classical method. Briefly, Peripheral Blood Mononuclear Cells (PBMCs) were isolated from buffy-coats (Blutspende, Schlieren) from healthy human donors, using Ficoll-Paque™ Plus (GE Healthcare, #17-1440-03) density gradient. Rings of PBMCs were collected and washed with PBS two times by centrifugation (5′ at 763 g; 5′ at 600 g). A lysis was conducted using 10 mL of BD Pharm Lyse™ (BD Biosciences, #555899) diluted at 1× with sterile water and incubated 1,5 minute at room temperature. Two washes with Phosphate-buffered saline 1× (PBS; Gibco® by live technologies™, #20012-019) were conducted by centrifugation (8′ at 135 g). Cells number and quality were evaluated using Cell counter (Beckman Coulter®). Separate unrelated donors were used for each independent experiment. Monocytes were isolated from fresh PBMCs by negative selection using Human monocyte enrichment kit (StemCell, #19059) in MACs buffer (1450 mL Automacs™ Rinsing solution, Miltenyi #130-091-222; and 75 mL MACS BSA stock Solution, Miltenyi #130-091-376) according to the manufacturer's instructions. […] The cells were then stained with anti-PD-1-PE-Cy7 and anti-PD-L1-APC Abs (BioLegend®; #329917, #329707), and measured by flow cytometry (BD). […]

[4] = NSCLC, XCR1 divided at medium expression level

Molecule: CC(=O)O[C@@]12CO[C@@H]1C[C@H](O)[C@@]1(C)C(=O)[C@H](O)C3=C(C)[C@@H](OC(=O)[C@H](O)[C@@H](NC(=O)OC(C)(C)C)c4ccccc4)C[C@@](O)([C@@H](OC(=O)c4ccccc4)[C@H]21)C3(C)C [docetaxel]
- correlation of XCR1 expression to survival ([1]; NSCLC): no correlation
- correlation of DC genes expression to survival ([1]; PD-L1+ patients): no correlation

Molecule: atezolizumab
- CR ([2]; 56 patients analyzed): 1
- PD ([2]; 56 patients analyzed): 21
- PR ([2]; 56 patients analyzed): 5
- non-responder ([2]; 56 patients analyzed): 47
- responders (Best Confirmed Overall Response by the Investigator) ([2]; 56 patients analyzed, FIG. 7): 6
- HR, higher versus lower DC score ([2]; RCC, p=0.03, FIG. 10): 0.38
- medium survival, patients with higher DC score ([2]; cumulative DC gene score (XCR1, IRF8, BATF3, FLT3), FIG. 10): without reaching medium survival
- separation of medium survival between patients with higher expression versus lower/no expression ([2]; single genes XCR1, IRF8, BATF3, FLT3, FIG. 9): at least 15.6 months
- separation of medium OS, higher versus lower/no XCR1 expression ([1]; NSCLC): ~7 months
- medium overall survival (mOS), patients with higher XCR1 expression [1, 4]: 15.5 month
- medium overall survival (mOS), patients with lower/no XCR1 expression [1, 4]: 8.6 month
- medium OS, patients with higher DC signature score ([1]; NSCLC, all patients): 16.4 months
- medium OS, patients with lower/no DC signature expression ([1]; NSCLC, all patients): 8.5 months
- separation of medium OS, higher versus lower/no DC signature expression ([1]; NSCLC, all patients): 7.9 months
- HR, higher versus lower DC signature score ([1]; NSCLC, all patients, p=0.04, FIG. 11): 0.54
- hazard ratio (HR) by Cox-regression analysis, higher versus lower/no XCR1 expression ([1]; NSCLC, p=0.077): 0.6
- median OS, patients with lower/no expression ([1]; PD-L1+ patients): 8.4 months
- medium OS, patients with higher DC gene score ([1]; PD-L1+ patients): not reached
- HR, higher versus lower DC signature score ([1]; PD-L1+ patients (TC3, TC2, IC3, IC2), p=0.03, FIG. 12): 0.25

Molecule: diphtheria toxin [DT]
- tumor growth [3]: did not impact the tumor growth

Molecule: lipopolysaccharide [LPS]
- PD-1 expression on DCs upon maturation (human DCs): downregulated
- PD-L1 expression on DCs upon maturation (human DCs): upregulated
